In PubChem BioAssay (NCI):
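In this assay, cells in 96-well plates receive the compound at five concentrations for 48 hours. Endpoints are linearly interpolated between the surrounding concentrations. Abbreviation: GI50, concentration required for 50% inhibition of growth. TGI is the concentration that stops growth completely.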

Key:
Experiment in all cases: growth of human tumour cells (NCI), 48 h
OVCAR-4 ovarian = tested on: OVCAR-4 ovarian
NCI-H23 lung = tested on: NCI-H23 lung
COLO 205 colon = tested on: COLO 205 colon
HT29 colon = tested on: HT29 colon
SW-620 colon = tested on: SW-620 colon
SNB-75 CNS = tested on: SNB-75 CNS
SR leukemia = tested on: SR leukemia
UO-31 renal = tested on: UO-31 renal
HS 578T breast = tested on: HS 578T breast
DU-145 prostate = tested on: DU-145 prostate

Row | SMILES | TGI (OVCAR-4 ovarian) | TGI (NCI-H23 lung) | TGI (COLO 205 colon) | TGI (HT29 colon) | TGI (SW-620 colon) | TGI (SNB-75 CNS) | TGI (SR leukemia) | TGI (UO-31 renal) | GI50 (OVCAR-4 ovarian) | GI50 (NCI-H23 lung) | GI50 (COLO 205 colon) | GI50 (HT29 colon) | GI50 (HS 578T breast) | TGI (HS 578T breast) | GI50 (SW-620 colon) | GI50 (SNB-75 CNS) | GI50 (DU-145 prostate) | TGI (DU-145 prostate) | GI50 (UO-31 renal) | GI50 (SR leukemia)
1 | NC(=O)c1c[se]c(C2OC(COP(=O)(O)CP(=O)(O)OCC3OC(n4cnc5c(N)ncnc54)C(O)C3O)C(O)C2O)n1 (configuration not stated) | > 100 µM | > 100 µM | > 100 µM | > 100 µM | > 100 µM | > 100 µM | > 100 µM | > 100 µM |  |  |  |  |  |  |  |  |  |  |  | 
2 | CC[P+]1(CC)CCCC1 | > 100 µM | > 100 µM | > 100 µM | > 100 µM | > 100 µM | > 100 µM |  | > 100 µM |  |  |  |  |  |  |  |  |  |  |  | 
3 | COC(=O)C1(F)C(=O)NC(=O)NC1OC (configuration not stated) | > 100 µM | > 100 µM | > 100 µM | > 100 µM | > 100 µM | > 100 µM | > 100 µM | > 100 µM |  |  |  |  |  |  |  |  |  |  |  | 
4 | COc1ccc2cc(-c3c(-c4ccncc4)nc(-c4ccc(S(C)=O)cc4C)n3C)ccc2c1 (configuration not stated) | > 25 µM | > 25 µM | > 25 µM | > 25 µM | > 25 µM | > 25 µM |  | > 25 µM | 16.3 µM | > 25 µM | 14.8 µM | 10.6 µM | > 25 µM | > 25 µM | > 25 µM | > 20.8 µM | > 25 µM | > 25 µM | 6.37 µM | 
5 | COc1cc([C@H]2c3[nH]c4ccccc4c3C[C@H]3COC(=O)N32)cc(OC)c1O | > 100 µM | 17.1 µM | 37.5 µM | 25.3 µM | > 70 µM | 3.2 µM | 0.285 µM | 29.7 µM |  |  |  |  |  | 44.7 µM |  |  |  |  |  | 
6 | COc1nc2c(c(O)c(C)c(=O)n2OC2OC(COC(C)=O)C(OC(C)=O)C(OC(C)=O)C2OC(C)=O)c(=O)n1C (configuration not stated) | > 100 µM | > 100 µM | > 100 µM | > 100 µM | > 100 µM | > 100 µM | > 100 µM | > 100 µM |  |  |  |  |  |  |  |  |  |  |  | 
7 | CC1(C)CC(=O)c2c(oc3cc(O)c(O)cc23)C1 | 43.4 µM |  | > 100 µM | > 100 µM | 37.2 µM | > 100 µM | > 100 µM | > 100 µM |  |  |  |  |  |  |  |  |  |  |  | 
8 | COc1ccc2c(c1)nc1n2C(c2ccc(F)cc2)SC1 (configuration not stated) | > 100 µM | > 100 µM | 37.4 µM |  | > 100 µM | > 100 µM |  | 67.9 µM | 33.8 µM | 18.9 µM | 16 µM |  | 28.3 µM | 70.5 µM | 32.3 µM | 25.6 µM | 15.2 µM | > 100 µM | 23.5 µM | 
9 | NC(N)=N/N=C/c1c(-c2ccc(Cl)c([N+](=O)[O-])c2)nc2n1CCS2 | 32.8 µM | 27.3 µM | 39.8 µM | 30.9 µM |  | 37.9 µM |  | 89 µM | 14.7 µM | 14.3 µM | 15.1 µM | 6.13 µM |  |  |  | 16 µM | 14.5 µM | 28.2 µM | 26 µM | 
10 | c1ccc(OCCSCCCCCCCCCCSCCOc2ccccc2)cc1 |  | > 100 µM | > 100 µM |  | > 100 µM | > 100 µM |  | > 100 µM |  |  |  |  |  |  |  |  |  |  |  | 
11 | CCCCCCCCCC(=O)Oc1cccc2onc(C)c12 | > 100 µM | > 100 µM | > 100 µM | > 100 µM | > 100 µM | > 100 µM | > 100 µM | > 100 µM |  |  |  |  |  |  |  |  |  |  |  | 
12 | CC1=C(C(=O)CC(=O)C(=O)NC2C3CC4CC(C3)CC2C4)Sc2ccccc2N1 (configuration not stated) | > 100 µM | > 100 µM | > 31.6 µM | > 100 µM | > 100 µM | > 100 µM |  | > 100 µM |  |  |  |  |  |  |  |  |  |  |  | 
13 | Cc1ccccc1NC(=O)C(=O)CC(=O)c1ccc([N+](=O)[O-])cc1 | > 100 µM | > 100 µM | > 100 µM | > 100 µM | > 100 µM | > 100 µM |  | > 100 µM |  |  |  |  |  |  |  |  |  |  |  | 
14 | NC(=O)c1cc(I)ccc1NC(=O)COc1ccccc1 |  | 22.4 µM | 1.97 µM | > 100 µM | > 100 µM | 4.49 µM | > 74.1 µM | > 100 µM |  | 0.822 µM | 0.323 µM | 0.367 µM | 0.462 µM | 36.1 µM | 0.432 µM | 0.316 µM | 0.457 µM | 32.2 µM | 4.27 µM | 0.285 µM
15 | COc1ccc2[nH]c(-c3ccccc3)cc2c1 | > 100 µM | > 100 µM | > 100 µM | > 100 µM | > 100 µM | > 100 µM |  | > 100 µM | 92.3 µM | 97.9 µM | > 100 µM | > 100 µM | > 100 µM | > 100 µM | > 100 µM | > 100 µM | > 100 µM | > 100 µM | > 100 µM | 
16 | CCCn1cnc2c(SCc3ccccc3)nc(N)nc21 |  | > 100 µM | > 100 µM | > 100 µM | > 100 µM | > 100 µM | > 100 µM | > 100 µM |  | > 100 µM | > 100 µM | > 100 µM | > 100 µM | > 100 µM | > 100 µM | > 100 µM | > 100 µM | > 100 µM | 67.7 µM | 49.6 µM
17 | CCOC(=O)C[C@@]12CCCNC1(C)CCc1ccccc12 (some centres not stated) |  |  | > 100 µM | > 100 µM | > 100 µM |  |  | > 100 µM |  |  |  |  |  |  |  |  |  |  |  | 
18 | C/C(=N/O)c1ccc2c(c1)C(=NO)c1cc(/C(C)=N/O)ccc1-2 | 30.5 µM | 35.3 µM | 38.5 µM | 30 µM | 34.8 µM | 36.3 µM | > 100 µM | 28.3 µM |  |  |  |  |  |  |  |  |  |  |  | 
19 | O=C1C(c2ccccc2)=C(c2ccccc2)[C@H](c2ccccc2)[C@]1(Cc1nnn(-c2ccc([N+](=O)[O-])cc2)c1N1CCOCC1)c1ccccc1 | > 37.5 µM | > 37.5 µM | > 37.5 µM | > 37.5 µM | > 37.5 µM | > 37.5 µM |  |  |  |  |  |  |  |  |  |  |  |  |  | 
20 | Cc1cc([N+](=O)[O-])c(S(=O)(=O)c2ccccc2)c([N+](=O)[O-])c1 | 24.5 µM | 26.2 µM | 24 µM | 19.1 µM | 10.1 µM | 47.3 µM | > 100 µM | 31 µM |  |  |  |  |  |  |  |  |  |  |  | 
